US20180228871A1, “METHODS FOR THE MOBILIZATION AND USE OF T-CELLS WITH ENHANCED RECONSTITUTION POTENTIAL AND LIFE-SPAN” (GlycoMimetics, Inc., priority 2015, published 2018)

B1: G-CSF: granulocyte-colony stimulating factor, a glycoprotein; Example I used Filgastim (Amgen) (protein, UniProt P09919 31-207, looked up)
Granulocyte …: TPLGPASSLPQSFLLKCLEQVRKIQGDGAALQEKLVSECATYKLCHPEELVLLGHSLGIPWAPLSSCPSQALQLAGCLSQLHSGLFLYQGLLQALEGISPELGPTLDTLQLDVADFATTIWQQMEELGMAPALQPTQGAMPAFASAFQRRAGGVLVASHLQSFLEVSYRVLRHLAQP
modifications: filgrastim
B2: Filgrastim: recombinant G-CSF expressed by E. coli, 175 amino acids, 19 kD, amino terminus methionine (protein, UniProt P09919 31-207, looked up)
Granulocyte …: TPLGPASSLPQSFLLKCLEQVRKIQGDGAALQEKLVSECATYKLCHPEELVLLGHSLGIPWAPLSSCPSQALQLAGCLSQLHSGLFLYQGLLQALEGISPELGPTLDTLQLDVADFATTIWQQMEELGMAPALQPTQGAMPAFASAFQRRAGGVLVASHLQSFLEVSYRVLRHLAQP
modifications: filgrastim, N-terminal Met
B3: Pegfilgrastim: Filgrastim with pegylation (20 kD-PEG) modification on the N terminal (protein, UniProt P09919 31-207, looked up)
Granulocyte …: TPLGPASSLPQSFLLKCLEQVRKIQGDGAALQEKLVSECATYKLCHPEELVLLGHSLGIPWAPLSSCPSQALQLAGCLSQLHSGLFLYQGLLQALEGISPELGPTLDTLQLDVADFATTIWQQMEELGMAPALQPTQGAMPAFASAFQRRAGGVLVASHLQSFLEVSYRVLRHLAQP
modifications: N-terminal 20 kDa PEG; pegfilgrastim

Columns and labels:
HSC = details: transient administration; cited from earlier work
CD8+CD62Lhi CD44+ cells = test: G-CSF mobilization of blood leukocytes and T-cell subsets with GMI-1271 co-administration (flow cytometry of blood); type: in vivo, mice (C57bl/6); details: C57bl/6 mice; for CD44+CD62hi CD4+ T-cells per uL blood: G-CSF administration, with or without GMI-1271 co-administration, FIG. 4B
Protocol: The following classification was used in the following experiments. Of all the CD8+ cells the Tnaive, population is CD62hi […]; the TCM/SCM population is CD62hi CD44+; and the TEM population is CD44+CD62^− population. An increase in the TCM/SCM mouse cell population is observed below (see FIGS. 1 through 6).
Cohorts of mice (C57bl/6 adult 10 week old males) were administered G-CSF (Filgastim, Amgen) at 125ug/kg/injection bidaily subcutaneous injections for a total of 72 hours before sacrifice (with non-mobilised control group #1 receiving saline injection instead).
The E-selectin mimetic antagonist GMI-1271 (bidaily intraperitoneal injections at 40 mg/kg/injection), was co-administered to these mice at specified timepoints prior to sacrifice with a final GMI-1271 injection always occurring exactly 1 hour prior to sacrifice. Generally all mice received injections at 9 am and 6 pm every day with n=4 per group. The injection groups are outlined in FIG. 1 and are detailed below.
The mouse groups were: Group 1. non-mobilised control, Group 2. G-CSF alone control, Group 3. 14 hours GMI-1271, Group 4. 24 hours GMI-1271, Group 5. 48 hours GMI-1271, Group 6. 72 hours GMI-1271
After 3 days (72 hours) G-CSF administration mice were euthanised administration and heparinised blood collected by cardiac puncture. Total blood leukocytes counts were enumerated using an automated haematological cell counter (Beckman-Coulter KX-21), For flow cytometry, red cells were first lysed using ammonium lysis then blood leukocytes washed in phosphate buffered saline (PBS) containing 2% fetal calf serum and incubated on ice in the presence of excess FcBlock (CD16/CD32 hybridoma 2.4G2 supernatant to block endogenous Fc receptors) following the methodology in Winkler et al., Nature Medicine 2012. Cells were stained using the antibodies CD4-pacific blue, CD8-peCY7, CD62L-BV605, CD44-AF700 at a final concentration of approx 5 million leukocytes per 100 uL volume containing 0.5 ug of each of the above conjugated monoclonal antibodies. All conjugated antibodies were purchased from Biolegend, CA. After 40 minutes incubation on ice, cells were washed to remove excess antibody (by addition of 1 mL PBS, centrifugation at 370×g for 5 minutes at 4 C, removal of supernatant and resuspension of pellet in 100 uL PBS with 2% fetal calf serum). Flow cytometry of cells was performed on the 8 colour CYAN (Beckman Coulter) using unstained blood and single colour controls to set voltages and gating strategy.
CD8+ Tcell subsets were divided based on CD62 and CD44 staining. With CD8+ naive T cells being CD62hi CD44−, CD8+T CM/SCM cells being CD62hi CD44+ double positive and TEM being CD44+ and CD62 negative following routine methodology.
Data was later analysed using the Flow Jo software and collated in excel software. Figures and statistics were by ANOVA using prism software.

HSCs = details: E-selectin inhibition during HSC mobilization with G-CSF; cited from earlier work
[1] = Mobilization of CCR7 cells by G-CSF and GMI-1271: PBMC counts and marker-positive cells by flow cytometry; type: in vivo, Mouse; details: IP qdX3, blood PBMC
Protocol: (§1) 1) Test Animals: • 1. Species: Mouse • 2. Strain: Balb/C and C57BV6 • 3. Age and gender 7-9 weeks, Female • 4. Source: Harlan Laboratories • 5. Total number: 25
(§2) G-CSF and GM-1271 in powder form. The test agents were reconstituted with saline 600 μg of G-CSF was dissolved in 6.5 mL of sterile saline giving a concentration of 92.307 μg/mL. Animals were administered with 0.1 mL of dose solution per time point giving the dose concentration for G-CSF was 9.23 μg per mouse per time point.
(§3) 70 mg of GM-1271 was reconstituted with 7 mL of sterile saline giving a concentration of 10 mg/mL. Animals were administered with 0.1 mL of dose solution per time point giving the dose concentration for GM-1271 was 1 mg per mouse per time point.
(§4) • To purify PBMCs, red blood cells (RBCs) in the whole blood were lysed using ACK Lysing Buffer (Life Technologies, A1049201). Whole blood was mixed with ACK Lysing Buffer at a 1: 25 ratio and incubated at room temperature on shaker for 5 min. The cells were centrifuged at 350 g for 7 min and the supernatant was discarded. The purified PBMCs were suspended in PBS containing 2% FBS. Cell counts were performed, pelleted at 250×g for 10 minutes and suspended in 5 ml HBSS containing containing Ca2+ and Mg2+(Life Technologies catalog #14025-092) plus 0.05% bovine serum albumin (BSA) to […] for antibody staining.
(§5) • Add 100 ul cells (2-3×10^5 cells) per tube (5 mL polypropylene round-bottom tubes (BD Falcon tubes #352063, VWR catalog #60819-728). Add indicated amounts of Alexa Fluor 488® labeled antibodies as indicated in Table 3 and immediately place on ice. • Place tubes at 4° C. for 1 hour then add 2 mL cold HBSS/BSA to each tube and pellet cells 250×g for 10 minutes. Pour off supernatant and suspend the cell pellet in 1 mL cold HBSS/BSA. Pellet cells 250×g for 10 minutes, pour off supernatant, and suspend cell pellet in 250 microliters HBSS/BSA. Add 250 microliters 2% formaldehyde (Polysciences, Inc. catalog #04018, 10% ultrapure, EM grade, methanol-free). Proceed to flow cytometry.
(§6) • Fluorescence was acquired via blue laser excitation at 488 nm with emission at 530 nm using preset lasers equipped on the Attune@ NxT Accoustic Focusing Cytometer (Life Technologies). 2×104 events were collected for each sample and analyzed with the use of the Attune® NxT Cytometric Software v2.1. Results were recorded as median fluorescent intensity, % cells positive for a given marker, and as cell concentration of expressing the specific marker per mL.
(§7) These experiments were done in both Balb/c (top table) and BL6 (bottom table) mouse strains.

CCR7+ cells = test: as above; type: in vivo, Mouse; details: for CCR7 Cells/mL(10^5): IP qdX3, blood PBMC
Protocol: as §1, §2, §3, §4, §5, §6, §7

[2] = in vivo; cited from earlier work

| Molecule | CD44+CD62hi CD4+ T-cells per uL blood (CD8+CD62Lhi CD44+ cells) | CD4 Cells/mL(10^5) ([1]; BL6 mice (bottom table)) | CD8 Cells/mL(10^5) ([1]; BL6 mice (bottom table)) | CD44 Cells/mL(10^5) ([1]; BL6 mice (bottom table)) | CD62L Cells/mL(10^5) ([1]; BL6 mice (bottom table)) | Total cells/mL (10^6 + SD) ([1]; BL6 mice (bottom table)) | CD4 Cells/mL(10^5) ([1]; Balb/c mice (top table)) | CD8 Cells/mL(10^5) ([1]; Balb/c mice (top table)) | CD44 Cells/mL(10^5) ([1]; Balb/c mice (top table)) | CD62L Cells/mL(10^5) ([1]; Balb/c mice (top table)) | Total cells/mL (10^6 + SD) ([1]; Balb/c mice (top table)) | CCR7 Cells/mL(10^5) (CCR7+ cells; BL6 mice (bottom table)) | CCR7 Cells/mL(10^5) (CCR7+ cells; Balb/c mice (top table)) | half-life [2] [h] | also measured |
| --- | --- | --- | --- | --- | --- | --- | --- | --- | --- | --- | --- | --- | --- | --- | --- |
| C[C@@H]1O[C@@H](O[C@@H]2[C@@H](NC(=O)c3cc(=O)[nH]c(=O)[nH]3)C[C@@H](C(=O)NCCNC(=O)COCCOCC(=O)Nc3cc(S(=O)(=O)O)cc4cc(S(=O)(=O)O)cc(S(=O)(=O)O)c34)C[C@H]2O[C@@H]2O[C@H](CO)[C@H](O)[C@H](O[C@@H](CC3CCCCC3)C(=O)O)[C@H]2OC(=O)c2ccccc2)[C@@H](O)[C@H](O)[C@@H]1O [GMI-1070] |  |  |  |  |  |  |  |  |  |  |  |  |  |  | HSC self-renewal (HSC): promotes HSC self-renewal |
| CC[C@H]1C[C@@H](C(=O)NCCNC(=O)CCOCCOCCOCCOCCOCCOCCOCCOCCOCCOCCOCCOC)C[C@@H](O[C@@H]2O[C@H](CO)[C@H](O)[C@H](O[C@@H](CC3CCCCC3)C(=O)[O-])[C@H]2NC(C)=O)[C@@H]1O[C@@H]1O[C@@H](C)[C@@H](O)[C@@H](O)[C@@H]1O.[Na+] [GMI-1271] | does not appear to boost their numbers in blood | 0.43 10^5 cells/mL | 1.74 10^5 cells/mL | 3.56 10^5 cells/mL | 0.19 10^5 cells/mL | 1.89 ± 0.40 10^6 cells/mL | 1.56 10^5 cells/mL | 0.49 10^5 cells/mL | 4.76 10^5 cells/mL | 0.74 10^5 cells/mL | 1.01 ± 0.46 10^6 cells/mL | 0.23 10^5 cells/mL | 1.68 10^5 cells/mL |  | Total leukocytes per uL blood, increase over G-CSF 3 days alone (CD8+CD62Lhi CD44+ cells; 24 hr administration of GMI-1271 with 72 h G-CSF, FIG. 2): ~1.5 fold; CD44+CD62hi CD8+ Tcells per uL blood (CD8+CD62Lhi CD44+ cells; 24 hrs GMI-1271 co-administration with G-CSF, FIG. 5B): significantly increased; CD4+ Tcells per uL blood (CD8+CD62Lhi CD44+ cells; G-CSF with GMI-1271 co-administration, FIG. 4A): no change; CD8+ Tcells per uL blood (CD8+CD62Lhi CD44+ cells; G-CSF with GMI-1271 co-administration, FIG. 5A): no changes; Total T-cells per uL blood (CD4+ and CD8+ combined) (CD8+CD62Lhi CD44+ cells; GMI-1271 co-administration with G-CSF, FIG. 3): No change; reconstitution potential of mobilized HSCs (HSCs): ~25 fold; mobilization of CCR7+ cells (CCR7+ cells; addition of GMI-1271 to G-CSF, both Balb/c and BL6 strains): increases the mobilization of CCR7+ cells |
| B1 | appear to be decreased | 1.10 10^5 cells/mL | 10.00 10^5 cells/mL | 12.65 10^5 cells/mL | 0.09 10^5 cells/mL | 5.98 ± 2.25 10^6 cells/mL | 3.43 10^5 cells/mL | 1.32 10^5 cells/mL | 14.88 10^5 cells/mL | 1.59 10^5 cells/mL | 2.67 ± 0.64 10^6 cells/mL | 0.60 10^5 cells/mL | 4.00 10^5 cells/mL |  |  |
| B2 |  |  |  |  |  |  |  |  |  |  |  |  |  | 3.5 |  |
| B3 |  |  |  |  |  |  |  |  |  |  |  |  |  | 15 to 80 |  |
